Where two headings read alike, the source gives them in different places.
How the values were obtained:
[1] = tested on: P3 mouse cochlear explants; experiment: Cochlear explant cultures treated with cisplatin, outer hair cell counts; details: for Protection at higher doses in explants treated with cisplatin: dose-response
[2] = tested on: cisplatin-induced ototoxicity in adult FVB mice; type: in vivo, mouse; details: 50 μM transtympanic
[3] = tested on: outer hair cells, 32-kHz region of the organ of Corti; experiment: Morphologic analysis and OHC counts of cochleae from cisplatin-treated mice; type: in vivo, mouse
[4] = weekly dosing schedule, phase I study; cited from earlier work
[5] = tested on: cisplatin-induced ototoxicity in adult FVB mice; details: earlier study of the authors; cited from earlier work
adult FVB mice = experiment: Toxicity of compound alone delivered transtympanically; details: 2, 10 or 50 μM, single transtympanic injection, 15 days after injection
Cdk2/Cyclin A = Cdk2/Cyclin A (Homo sapiens, UniProt P24941); experiment: CDK2 inhibition assay; type: biochemical

For `O=C(NC1CCNCC1)c1n[nH]cc1NC(=O)c1c(Cl)cccc1Cl` [AT7519, N-(4-piperidinyl)-4-(2,6-dichlorobenzoylamino)-1H-pyrazole-3-carboxamide], the “Protection in cochlear explant cultures treated with cisplatin” value ([1]; compound 25 nM, cisplatin 150 μM) was “excellent protection” and the “Protection at higher doses in explants treated with cisplatin” value [1] was “loss of activity was observed at higher doses”.

In the case of `Cc1ncc(-c2ccnc(Nc3ccc(S(C)(=O)=O)cc3)n2)n1C(C)C` [AZD5438], the “Overall protection against cisplatin-induced ototoxicity in mice” value (“Overall protection” below) [2] is given as “fully protective”, the “OHC loss in the 32-kHz region” value ([3]; 50 μM transtympanic 1 h before and 24 h after cisplatin) is given as “virtually no OHC loss” and the “Safety and tolerability in patients” value [4] is given as “safe and well tolerated”.

For `O=C1Cc2c([nH]c3ccc(Br)cc23)-c2ccccc2N1` [Kenpaullone], the “Overall protection” value [5] is given as “complete protection”.

With `O=C(N[C@H]1CC[C@H](O)CC1)c1n[nH]cc1NC(=O)c1c(F)cccc1F` [analog 7] the “Overall protection” value [2] was “some—but not complete—protection”, the “OHC loss in middle basal turn (32-kHz region) vs cisplatin alone” value ([3]; 50 μM transtympanic 1 h before cisplatin) was “Substantially less OHC loss” and the “Protection against cisplatin toxicity in cochlear explants” value ([1]; compound 150 nM, P3 mouse explants, OHC counts) was “significant protection”. The “Protection at higher doses in explants treated with cisplatin” value [1] was “maintains the level of protection at higher doses” and the “Toxicity in the ears of mice in the absence of cisplatin” value (adult FVB mice) was “nontoxic”.

`O=C(NC1CCN(C(=O)c2c(Cl)cccc2Cl)CC1)c1n[nH]cc1NC(=O)c1c(Cl)cccc1Cl` [analog 14] gave an IC50 (Cdk2/Cyclin A) of 0.76 µM.

In the case of AZD1080, the EC50 ([1]; read-out: Explant EC50, estimated EC50 based on 2–3 tested dose concentrations, cisplatin 150 μM) is reported as 15 µM.
